For two compounds, Activity, Ratio and EC50 results are on record in ChEMBL document CHEMBL4418911, “Methods to identify modulators” (2012).

Structures are written as SMILES. Calls of active or inactive are those of the source. The rule behind the calls is not given here.

The target in assay [1] is T1, Taste receptor type 2 member 10 (Homo sapiens) (UniProt Q9NYW0).
T1 sequence (whole entry): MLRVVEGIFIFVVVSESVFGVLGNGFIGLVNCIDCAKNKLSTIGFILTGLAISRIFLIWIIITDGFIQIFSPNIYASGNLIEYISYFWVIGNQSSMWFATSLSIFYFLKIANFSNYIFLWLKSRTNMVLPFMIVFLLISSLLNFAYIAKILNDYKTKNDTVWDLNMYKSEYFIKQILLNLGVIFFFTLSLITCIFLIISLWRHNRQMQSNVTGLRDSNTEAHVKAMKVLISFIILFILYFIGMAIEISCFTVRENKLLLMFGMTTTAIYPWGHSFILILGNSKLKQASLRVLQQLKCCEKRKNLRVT
In words: Activation of full-length human TAS2R10 expressed in HEK293T/Galpha16-gustducin 44 cells assessed as effect on calcium flux by measuring deltaF/F0 ratio by Fluo-4 dye based FLIPR assay. Format: functional, cell-based. Background: Calcium assays in cells follow changes in intracellular calcium, usually with a dye or a luminescent sensor.

For assay [2], the target named is T2, Taste receptor type 2 member 31 (Homo sapiens) (UniProt P59538).
T2 sequence (whole entry): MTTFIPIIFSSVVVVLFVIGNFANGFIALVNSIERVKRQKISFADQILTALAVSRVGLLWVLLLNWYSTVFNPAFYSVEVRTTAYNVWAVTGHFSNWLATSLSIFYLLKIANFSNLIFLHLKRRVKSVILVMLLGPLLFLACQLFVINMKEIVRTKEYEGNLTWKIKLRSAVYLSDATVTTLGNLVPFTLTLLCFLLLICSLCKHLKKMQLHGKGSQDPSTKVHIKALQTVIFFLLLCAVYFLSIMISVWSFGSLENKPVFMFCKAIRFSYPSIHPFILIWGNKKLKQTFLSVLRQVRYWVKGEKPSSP
In words: Activation of full-length human TAS2R44 expressed in HEK293T/Galpha16-gustducin 44 cells assessed as effect on calcium flux by measuring deltaF/F0 ratio at 12.5 mM in presence of (E)-4-(2,2,3-trimethylcyclopent-3-enyl)but-2-enoic acid by Fluo-4 dye based FLIPR assay (reference value: 0.051 +/- 0.004). The format is functional, cell-based.

Assay [3] addresses T2, Taste receptor type 2 member 31 (Homo sapiens). In words: Agonist activity at full-length human TAS2R44 expressed in HEK293T/Galpha16-gustducin 44 cells assessed as effect on calcium flux by measuring deltaF/F0 ratio in presence of 4-(2,2,3-trimethylcyclo-pentyl)butanamide) by Fluo-4 dye based FLIPR assay. Format: functional, cell-based.
Assay [4] shares this target. In words: Activation of full-length human TAS2R44 expressed in HEK293T/Galpha16-gustducin 44 cells assessed as effect on calcium flux by measuring deltaF/F0 ratio at 0.7813 mM in presence of (E)-4-(2,2,3-trimethylcyclopent-3-enyl)but-2-enoic acid by Fluo-4 dye based FLIPR assay (reference value: 0.038 +/- 0.042). The format is functional, cell-based.
For assay [5] the target is unchanged. The assay can be described thus: Activation of full-length human TAS2R44 expressed in HEK293T/Galpha16-gustducin 44 cells assessed as effect on calcium flux by measuring deltaF/F0 ratio at 0.3906 mM in presence of (E)-4-(2,2,3-trimethylcyclopent-3-enyl)but-2-enoic acid by Fluo-4 dye based FLIPR assay (reference value: 0.046 +/- 0.048). The format is functional, cell-based.

The target is the same in assay [6]. The assay can be described thus: Activation of full-length human TAS2R44 expressed in HEK293T/Galpha16-gustducin 44 cells assessed as effect on calcium flux by measuring deltaF/F0 ratio at 3.125 mM in presence of (E)-4-(2,2,3-trimethylcyclopent-3-enyl)but-2-enoic acid by Fluo-4 dye based FLIPR assay (reference value: 0.030 +/- 0.042). The format is functional, cell-based.

For assay [7] the target is unchanged. The assay can be described thus: Activation of full-length human TAS2R44 expressed in HEK293T/Galpha16-gustducin 44 cells assessed as effect on calcium flux by measuring deltaF/F0 ratio at 25 mM in presence of (E)-4-(2,2,3-trimethylcyclopent-3-enyl)but-2-enoic acid by Fluo-4 dye based FLIPR assay (reference value: 0.110 +/- 0.019). The format is functional, cell-based.

Another assay deals with HEK-293T. The assay can be described thus: Effect on calcium flux in HEK293T/Galpha16-gustducin 44 cells assessed as deltaF/F0 ratio at 100 mM in presence of (E)-4-(2,2,3-trimethylcyclopent-3-enyl)but-2-enoic acid, by Fluo-4 dye based FLIPR assay. The format is functional, Homo sapiens.
The species named for assay [8] is Homo sapiens. In words: Induction of bitter sensitivity in bitter sensitive human panelists tasting solution containing 3 mM compound in absence of 13 ppm (E)-4-(2,2,3-trimethylcyclopent-3-enyl)but-2-enoic acid. Format: functional, organism-based.
The target of assay [9] is T2, Taste receptor type 2 member 31 (Homo sapiens). The assay can be described thus: Activation of full-length human TAS2R44 expressed in HEK293T/Galpha16-gustducin 44 cells assessed as effect on calcium flux by measuring deltaF/F0 ratio at 6.25 mM in presence of (E)-4-(2,2,3-trimethylcyclopent-3-enyl)but-2-enoic acid by Fluo-4 dye based FLIPR assay (reference value: 0.027 +/- 0.029). The format is functional, cell-based.

The target is the same in assay [10]. In words: Activation of full-length human TAS2R44 expressed in HEK293T/Galpha16-gustducin 44 cells assessed as effect on calcium flux by measuring deltaF/F0 ratio at 50 mM in presence of (E)-4-(2,2,3-trimethylcyclopent-3-enyl)but-2-enoic acid by Fluo-4 dye based FLIPR assay (reference value: 0.192 +/- 0.011). The format is functional, cell-based.
The species named for assay [11] is Homo sapiens. The assay can be described thus: Induction of bitter sensitivity in bitter sensitive human panelists tasting solution containing 3 mM compound in presence of 13 ppm (E)-4-(2,2,3-trimethylcyclopent-3-enyl)but-2-enoic acid. Format: functional, organism-based.
The target of assay [12] is T3, Taste receptor type 2 member 1 (Homo sapiens) (UniProt Q9NYW7).
T3 sequence (whole entry): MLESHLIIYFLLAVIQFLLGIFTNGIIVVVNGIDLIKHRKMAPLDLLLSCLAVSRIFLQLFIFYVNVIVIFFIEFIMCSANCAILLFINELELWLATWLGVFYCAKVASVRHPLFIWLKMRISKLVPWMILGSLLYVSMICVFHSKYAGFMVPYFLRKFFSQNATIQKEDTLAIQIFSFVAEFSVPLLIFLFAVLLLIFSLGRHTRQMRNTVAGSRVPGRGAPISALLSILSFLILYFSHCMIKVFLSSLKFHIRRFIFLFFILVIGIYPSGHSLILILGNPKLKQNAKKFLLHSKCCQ
In words: Activation of full-length human TAS2R1 expressed in HEK293T/Galpha16-gustducin 44 cells assessed as effect on calcium flux by measuring deltaF/F0 ratio by Fluo-4 dye based FLIPR assay. Format: functional, cell-based.

In assay [13] the target is T4, Taste receptor type 2 member 46 (Homo sapiens) (UniProt P59540).
T4 sequence (whole entry): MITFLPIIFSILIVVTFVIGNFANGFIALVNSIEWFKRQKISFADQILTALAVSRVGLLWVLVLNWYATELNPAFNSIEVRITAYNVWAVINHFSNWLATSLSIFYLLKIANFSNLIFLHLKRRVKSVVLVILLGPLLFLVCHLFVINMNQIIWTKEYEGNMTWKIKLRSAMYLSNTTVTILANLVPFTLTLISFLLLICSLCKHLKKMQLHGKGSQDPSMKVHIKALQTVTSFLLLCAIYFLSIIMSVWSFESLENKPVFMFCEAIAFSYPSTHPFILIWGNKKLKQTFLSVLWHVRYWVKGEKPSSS
The assay can be described thus: Activation of full-length human TAS2R46 expressed in HEK293T/Galpha16-gustducin 44 cells assessed as effect on calcium flux by measuring deltaF/F0 ratio by Fluo-4 dye based FLIPR assay. The format is functional, cell-based.

Assay [14] concerns the target T5, Taste receptor type 2 member 31 (Homo sapiens, UniProt P59538).
T5 sequence (P59538 whole entry): T2 sequence (whole entry)
In words: Agonist activity at full-length human TAS2R44 expressed in HEK293T/Galpha16-gustducin 44 cells assessed as effect on calcium flux by measuring deltaF/F0 ratio in presence of (E)-4-(2,2,3-trimethylcyclopent-3-enyl)but-2-enoic acid by Fluo-4 dye based FLIPR assay. Format: functional, cell-based.

Assay [15] has as its target T6, Taste receptor type 2 member 16 (Homo sapiens) (UniProt Q9NYV7).
T6 sequence (whole entry): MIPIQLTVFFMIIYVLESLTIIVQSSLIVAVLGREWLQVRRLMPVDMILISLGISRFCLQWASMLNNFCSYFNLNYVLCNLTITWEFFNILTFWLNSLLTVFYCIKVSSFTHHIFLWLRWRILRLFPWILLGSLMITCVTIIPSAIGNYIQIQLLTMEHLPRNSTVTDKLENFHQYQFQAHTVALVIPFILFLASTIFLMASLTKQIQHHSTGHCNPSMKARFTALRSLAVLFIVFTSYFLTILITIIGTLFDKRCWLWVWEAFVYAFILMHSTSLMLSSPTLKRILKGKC
In words: Activation of full-length human TAS2R16 expressed in HEK293T/Galpha16-gustducin 44 cells assessed as effect on calcium flux by measuring deltaF/F0 ratio in presence of 4-(2,2,3-trimethylcyclo-pentyl)butanamide) by Fluo-4 dye based FLIPR assay. The format is functional, cell-based.

Assay [16] deals with T6, Taste receptor type 2 member 16 (Homo sapiens). In words: Activation of full-length human TAS2R16 expressed in HEK293T/Galpha16-gustducin 44 cells assessed as effect on calcium flux by measuring deltaF/F0 ratio at 5 mM in presence of (E)-4-(2,2,3-trimethylcyclopent-3-enyl)but-2-enoic acid by Fluo-4 dye based FLIPR assay. The format is functional, cell-based.
For assay [17] the target is unchanged. In words: Activation of full-length human TAS2R16 expressed in HEK293T/Galpha16-gustducin 44 cells assessed as effect on calcium flux by measuring deltaF/F0 ratio at 10 mM in presence of (E)-4-(2,2,3-trimethylcyclopent-3-enyl)but-2-enoic acid by Fluo-4 dye based FLIPR assay. Format: functional, cell-based.
The target is the same in assay [18]. The assay can be described thus: Activation of full-length human TAS2R16 expressed in HEK293T/Galpha16-gustducin 44 cells assessed as effect on calcium flux by measuring deltaF/F0 ratio at 0.0391 mM in presence of (E)-4-(2,2,3-trimethylcyclopent-3-enyl)but-2-enoic acid by Fluo-4 dye based FLIPR assay. Format: functional, cell-based.
Assay [19] shares this target. In words: Activation of full-length human TAS2R16 expressed in HEK293T/Galpha16-gustducin 44 cells assessed as effect on calcium flux by measuring deltaF/F0 ratio at 0.3125 mM in presence of (E)-4-(2,2,3-trimethylcyclopent-3-enyl)but-2-enoic acid by Fluo-4 dye based FLIPR assay. The format is functional, cell-based.
Assay [20] shares this target. In words: Activation of full-length human TAS2R16 expressed in HEK293T/Galpha16-gustducin 44 cells assessed as effect on calcium flux by measuring deltaF/F0 ratio at 0.625 mM in presence of (E)-4-(2,2,3-trimethylcyclopent-3-enyl)but-2-enoic acid by Fluo-4 dye based FLIPR assay. Format: functional, cell-based.
For assay [21] the target is unchanged. In words: Activation of full-length human TAS2R16 expressed in HEK293T/Galpha16-gustducin 44 cells assessed as effect on calcium flux by measuring deltaF/F0 ratio at 0.1563 mM in presence of (E)-4-(2,2,3-trimethylcyclopent-3-enyl)but-2-enoic acid by Fluo-4 dye based FLIPR assay. Format: functional, cell-based.
Assay [22] has the same target. The assay can be described thus: Activation of full-length human TAS2R16 expressed in HEK293T/Galpha16-gustducin 44 cells assessed as effect on calcium flux by measuring deltaF/F0 ratio at 2.5 mM in presence of (E)-4-(2,2,3-trimethylcyclopent-3-enyl)but-2-enoic acid by Fluo-4 dye based FLIPR assay. The format is functional, cell-based.
Assay [23] has the same target. The assay can be described thus: Activation of full-length human TAS2R16 expressed in HEK293T/Galpha16-gustducin 44 cells assessed as effect on calcium flux by measuring deltaF/F0 ratio at 0.0781 mM in presence of (E)-4-(2,2,3-trimethylcyclopent-3-enyl)but-2-enoic acid by Fluo-4 dye based FLIPR assay. The format is functional, cell-based.

Turning to `OC[C@H]1O[C@H](O[C@]2(CCl)O[C@H](CCl)[C@@H](O)[C@@H]2O)[C@H](O)[C@@H](O)[C@H]1Cl` [SUCRALOSE], the Activity result in assay [1], in [12] and in assay [13] was “Dose-dependent effect” each time. Besides, the Ratio is -0.015 in assay [2]; 0.01 in [4]; 0.011 in assay [5]; 0.005 in [6]; -0.035 in assay [7]; -0.175 in the assay with HEK-293T. Also, the Ratio in [9] is 0; in [10], -0.025. Moreover, the outcome (in assay [3]; in the assay filed under Homo sapiens [8]) was Active. Moreover, the result in the assay listed under Homo sapiens [11] was inactive. Moreover, the EC50 result in assay [14] was “Not Active”.

In the case of `OC[C@H]1O[C@@H](Oc2ccccc2)[C@H](O)[C@@H](O)[C@@H]1O`, in [15], the outcome was Active. Further, the Ratio in [16] is 2.65; in assay [17] it was 2.83; in assay [18], -0.013; in assay [19] it was 1.55; in assay [20], 2.14; in assay [21], 0.702. Moreover, the Ratio in assay [22] worked out at 2.48; in assay [23], 0.108.
